# From patent US11173135B2 (Thiogenesis Therapeutics, Inc., priority 2016, dated 2021)
# Columns and labels:
# [1] = cited from earlier work
# [2] = cystinuria patients; cited from earlier work
# [3] = in vivo; cited from earlier work
# [4] = Example 8 cystinosis patient cases: plasma cysteamine levels; type: in vivo, human
# Excerpt: (§1) Dose formulations and treatment regimens for three patients with cystinosis are described, to illustrate both demographic variability in the patient population and how inter-individual biochemical variation in drug absorption, metabolism and response can be overcome by exploiting the drug and dosage form flexibility provided by the invention. These examples illustrate the principles of cysteamine precursor selection, dosage form selection and dose regimen individualization.
# [5] = tested on: white blood cell (WBC) cystine; test: Example 8 cystinosis patient cases: white blood cell cystine; type: in vivo, human
# Excerpt: as §1
# Disease control is monitored via periodic measurement of white blood cell cystine levels. The therapeutic target, as for all cystinosis patients, is to suppress white blood cell (WBC) cystine to less than 1 nanomole of ½ cystine per mg of WBC protein. […] If this higher dose is still not effective in controlling WBC cystine levels the dose can be further increased in increments of 150 mg/day.
# cystinosis patients = conditions: high doses, syrup between meals; cited from earlier work
# ALT and AST in plasma = test: Example 9 NASH patient case: plasma liver enzymes; type: in vivo, human; conditions: within six weeks of initiating therapy; with vitamin C and vitamin E
# Experimental: The daily dose of vitamin C is 2 grams and the daily dose of vitamin E is 800 international units of alpha tocopherol, RRR stereoisomer, which amounts to 533.3 milligrams per day (1 IU of tocopherol is defined as % milligrams of RRR-alpha-tocopherol). Half those amounts are administered twice per day.
# Drug is administered in two divided doses (1,392 mg each) at 10 to 12 hour intervals, with breakfast and dinner.
# In the second category (dynamic markers of drug response) levels of ALT and AST in plasma are followed over time as an index of ongoing hepatocyte damage. […] If ALT and AST levels had not dropped by 50% the regimen would have been discontinued.
# [6] = Dissolution of TTI-0602 dose in saline; type: physicochemical; conditions: 120 mg/kg dose in 3 milliliters of saline
# [7] = Tissue levels of cysteamine in liver and kidney at end of PK study; type: in vivo, Sprague-Dawley rats; conditions: 10.5 hours after TTI-0602 120 mg/kg, all three rats
# Experimental: (§2) In addition to the plasma samples, gastrointestinal contents (stomach contents, proximal small intestinal contents, distal small intestinal contents and cecum/colon contents), liver, kidney and spleen were obtained from rats at the end of the study (10.5 hours after dosing) and snap frozen. Tissue levels of cysteamine, N-acetyl cysteamine and pantothenic acid were measured in the gastrointestinal contents and in liver and kidney tissue. […]
# [8] = Analysis of gastrointestinal contents at end of PK study; type: in vivo, Sprague-Dawley rats; conditions: 120 mg/kg rats, ten hours after dosing
# Experimental: as §2
# [9] = Pharmacokinetic study of TTI-0602: cysteamine in blood plasma after gavage; type: in vivo, Sprague-Dawley rats
# Experimental: Thus in the discussion below, and in the accompanying figures, a “30 mg/kg” dose of TTI-0602 means 77.92 mg/kg was administered, a “60 mg/kg” dose of TTI-0602 means 155.84 mg/kg was administered and a “120 mg/kg” dose of TTI-0602 means 311.68 mg/kg was administered. The purpose of this nomenclature, which is widely used in the literature concerning cysteamine salts, is to facilitate comparison of doses of different cysteamine precursors and cysteamine salts.
# The TTI-0602 doses were prepared for 250 gram rats, but the actual masses of the rats at the time of drug administration varied from 267-300 grams, so the actual doses, normalized to body weight, ranged from 26.1-27.1 mg/kg in group 1, 51.7-56.2 mg/kg in group 2 and 108.3-109.5 mg/kg in group 3. Nonetheless, for convenience those doses are referred to as 30, 60 and 120 mg/kg.
# Blood samples were obtained from rats immediately before dosing and 5, 10, 20, 30, 45, 60, 90, 120, 180, 240, 300 and 600 minutes after dosing via carotid artery catheters surgically implanted before the PK study. Plasma was obtained from blood by centrifugation and snap frozen. Several days later plasma samples were thawed on ice and each plasma sample was aliquoted to two paired tubes (20 μL per tube), one of which was processed for measurement of thiols (after quantitative disulfide bond reduction), while the other was processed for analysis of disulfides.
# To quantitatively reduce disulfide bonds the plasma in the first tube was treated with 5 mM tris(2-carboxyethyl)phosphine (TCEP), a selective and potent disulfide bond reducing agent, using a protocol reported by Dohil et al. (2012). Briefly, 2.2 ul of freshly prepared 50 mM TCEP stock solution was added to 20 ul of plasma and the sample incubated at 37 degrees C. for 45 minutes. […]
# The denatured protein was pelleted by centrifugation at 14,000 rpm for 10 minutes at 4 degrees C. in an Eppendorf microcentrifuge. […] Metabolites were analyzed using a Nexera X2 U-HPLC (Shimadzu) and a Q-Exactive hybrid quadrupole Orbitrap mass spectrometer (Thermo Fisher Scientific). […]
# Plasmodium Falciparum = conditions: in vitro and in mouse models of malaria; cited from earlier work
# [10] = administered to fasting patients; cited from earlier work
# [11] = tested on: CYP1A2, CYP2A6, CYP2B6, CYP2C8, CYP2C9, CYP2C19, CYP2D6, CYP2E1 and CYP3A4; conditions: in vitro; cited from earlier work
# [12] = tested on: CYP1A2, CYP2B6, CYP2C8, CYP2C9, CYP2C19, CYP2D6, CYP2E1, CYP2A6, CYP3A4; conditions: in vitro; cited from earlier work
# [13] = tested on: erythrocytes from sickle cell disease patients; conditions: hypoxic conditions; cited from earlier work
# [14] = Lynovex from Novabiotics; cited from earlier work
# R6/2 HD mouse model = conditions: R6/2 mouse; cited from earlier work
# Pseudomonas aeruginosa = conditions: cited from earlier work
# children with NAFLD = conditions: pediatric NAFLD patients treated for 24 weeks; cited from earlier work
# kidney fibrosis = conditions: two mouse models; cited from earlier work
# [15] = tested on: cancer cell lines and xenograft models; conditions: cited from earlier work
# [16] = cysteamine hydrochloride at 30 mg/kg cysteamine base, gavage
structure (smiles),measurement,setting,value
NCCS.O=C(O)C(O)C(O)C(=O)O (centres unmarked) [cysteamine bitartrate],time by which cysteamine levels returned to baseline,[1]; cysteamine bitartrate 20 mg/kg cysteamine base equivalent,≤ 2 h
same,cysteamine eliminated by 150 minutes (inferred),"[1]; cysteamine bitartrate 20 mg/kg, tissue",over 95%
same,tissue half life of cysteamine,[1]; cysteamine bitartrate 20 mg/kg,25 to 29 min
CC(S)C(=O)NCC(=O)O (centres unmarked) [tiopronin],tolerability,[2],not well tolerated by most patients
CC(C)(COP(=O)(O)O)[C@@H](O)C(=O)NCCC(=O)NCCS [4-phosphopantetheine],half life in blood,[3],over 3 hours
"CC(C)(CO)[C@@H](O)C(=O)NCCC(=O)NCCSSCCN [cysteamine-pantetheine disulfide, cysteamine-(R)-pantetheine disulfide]",plasma cysteamine level six hours after the morning dose,"[4]; Patient 2, 1,800 mg/day as IR/DR/SR powders",22 µM
same,plasma cysteamine level 12 hours after the morning dose,"[4]; Patient 2, immediately before the evening dose",4 µM
same,WBC cystine level,"[5]; Patient 2, after sustained release component increased from 540 to 800 mg/day",0.9 nanomoles of ½ cystine per mg protein
same,WBC cystine level,"[5]; Patient 2, after two months, 1,800 mg/day cysteamine free base as IR/DR/SR powders",1.34 nanomoles of ½ cystine per mg of protein
NCCS [cysteamine bitartrate],Cmax,"[1]; read-out: Cmax of cysteamine, cysteamine bitartrate 20 mg/kg cysteamine base equivalent",81.9 µM
CC(C)(CO)[C@@H](O)C(=O)NCCC(=O)NCCSSCCNC(=O)CCNC(=O)[C@H](O)C(C)(C)CO [pantethine],gastrointestinal side effect,cystinosis patients,caused diarrhea
"CC(=O)NC(CSSCCN)C(=O)O (centres unmarked) [cysteamine-N-acetylcysteine, cysteamine-N-acetylcysteine disulfide]",fall in plasma ALT,ALT and AST in plasma,at least 50%
same,fall in plasma AST,ALT and AST in plasma,at least 50%
"CC(=O)NCCSSCCNC(=O)CCNC(=O)[C@H](O)C(C)(C)CO [TTI-0602, N-acetylcysteamine-(R)-pantetheine disulfide]",dissolution of dose in saline,[6],did not completely dissolve in saline
same,tissue level of cysteamine in kidney,[7],over 50 uM
same,tissue level of cysteamine in liver,[7],over 50 uM
same,undissolved drug in gastrointestinal contents,[8],a substantial amount of undissolved drug remained stuck in the stomachs of rats 8 and 9
"Cl.NCCS [cysteamine HCl, cysteamine hydrochloride]",shape of the plasma cysteamine concentration-time curve,[9]; cysteamine hydrochloride 30 mg/kg vs TTI-0602 120 mg/kg,"a high, sharp peak"
same,peak plasma cysteamine concentration,[9]; [16],over 200 uM
same,time by which cysteamine concentration declined to less than half maximal,[9]; [16],≤ 90 min
"NCCS [cysteamine, 2-aminoethanethiol]",proliferation of the parasite,Plasmodium Falciparum,inhibits proliferation
same,inter-patient variation in cysteamine plasma levels,[10],up to four fold
same,inhibition of CYP enzymes,[11],"not an inhibitor of CYP1A2, CYP2A6, CYP2B6, CYP2C8, CYP2C9, CYP2C19, CYP2D6, CYP2E1 and CYP3A4"
same,metabolism by CYP enzymes,[12],"likely to be metabolized by multiple CYP enzymes, including CYP1A2, CYP2B6, CYP2C8, CYP2C9, CYP2C19, CYP2D6, and CYP2E1, but not by CYP2A6 or CYP3A4"
same,sickling,[13],marked inhibition of sickling
same,mucolytic activity vs. currently available mucolytic agents,[14],at least comparable mucolytic activity
same,beneficial effects in HD mouse model,R6/2 HD mouse model,"amelioration of weight loss and motor abnormalities, and prolongation of survival"
same,effect on biofilms,Pseudomonas aeruginosa; P. aeruginosa biofilms,"prevented the formation of, and disrupted established P. aeruginosa biofilms"
same,bactericidal activity,"Pseudomonas aeruginosa; Pseudomonas aeruginosa and other CF pathogens, Lynovex from Novabiotics",bactericidal
same,high molecular weight adiponectin multimers,children with NAFLD,increased levels of high molecular weigh adiponectin multimers
same,efficacy in kidney fibrosis models,kidney fibrosis,effective
same,matrix metalloproteinase activity,[15]; animal xenografts and cancer cell lines,significantly decreased
same,survival of mice,[15]; xenograft models,prolonged survival of mice in a dose-dependent manner without toxicity
CC(S)C(=O)NCC(=O)O (stereo not drawn) [Alpha-mercaptopropionylglycine],tolerability,[2],not tolerated by about one third of patients
CC(C)(S)[C@@H](N)C(=O)O [penicillamine],tolerability,[2],not well tolerated by most patients
